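GI50 is the concentration that inhibits growth by half. TGI denotes the concentration required for complete inhibition of growth.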
Experiments:
Test in all cases: inhibition of tumour cell growth, NCI panel, 384-well format
786-0 renal = tested on: 786-0 renal
A498 renal = tested on: A498 renal
BT-549 breast = tested on: BT-549 breast
CAKI-1 renal = tested on: CAKI-1 renal
COLO 205 colon = tested on: COLO 205 colon
DU-145 prostate = tested on: DU-145 prostate
EKVX NSCLC = tested on: EKVX NSCLC
HCT-116 colon = tested on: HCT-116 colon
HL-60(TB) leukemia = tested on: HL-60(TB) leukemia
HOP-62 NSCLC = tested on: HOP-62 NSCLC
HOP-92 NSCLC = tested on: HOP-92 NSCLC
HT29 colon = tested on: HT29 colon
IGROV1 ovarian = tested on: IGROV1 ovarian
K-562 leukemia = tested on: K-562 leukemia
KM12 colon = tested on: KM12 colon
M14 melanoma = tested on: M14 melanoma
MALME-3M melanoma = tested on: MALME-3M melanoma
MDA-MB-231 breast = tested on: MDA-MB-231 breast
MDA-MB-435 melanoma = tested on: MDA-MB-435 melanoma
MDA-MB-468 breast = tested on: MDA-MB-468 breast
MOLT-4 leukemia = tested on: MOLT-4 leukemia
NCI-H226 lung = tested on: NCI-H226 lung
NCI-H23 lung = tested on: NCI-H23 lung
NCI-H460 NSCLC = tested on: NCI-H460 NSCLC
NCI-H522 lung = tested on: NCI-H522 lung
OVCAR-3 ovarian = tested on: OVCAR-3 ovarian
OVCAR-4 ovarian = tested on: OVCAR-4 ovarian
PC-3 prostate = tested on: PC-3 prostate
RXF 393 renal = tested on: RXF 393 renal
SF-268 CNS = tested on: SF-268 CNS
SF-539 CNS = tested on: SF-539 CNS
SK-MEL-2 melanoma = tested on: SK-MEL-2 melanoma
SK-MEL-28 melanoma = tested on: SK-MEL-28 melanoma
SK-OV-3 ovarian = tested on: SK-OV-3 ovarian
SN12C renal = tested on: SN12C renal
SNB-19 CNS = tested on: SNB-19 CNS
SW-620 colon = tested on: SW-620 colon
TK-10 renal = tested on: TK-10 renal
UACC-257 melanoma = tested on: UACC-257 melanoma
UACC-62 melanoma = tested on: UACC-62 melanoma
UO-31 renal = tested on: UO-31 renal

Q: How did the GI50 ([…]-0 renal) turn out when `COc1cc(N2CCC(N3CCN(C)CC3)CC2)ccc1Nc1ncc(Cl)c(Nc2ccccc2S(=O)(=O)C(C)C)n1` was run?
A: The GI50 was 1010 nM.

Q: And the TGI (786-0 renal)?
A: The TGI was 2170 nM.

Q: And the GI50 (A498 renal)?
A: The GI50 was 790 nM.

Q: What about the TGI (A498 renal) of the same compound?
A: The TGI was 2790 nM.

Q: And the GI50 (BT-549 breast)?
A: Its GI50 is 418 nM.

Q: And the TGI (BT-549 breast)?
A: Its TGI is 1320 nM.

Q: And the GI50 (CAKI-1 renal)?
A: Its GI50 is 490 nM.

Q: And the TGI (CAKI-1 renal)?
A: The TGI was 1560 nM.

Q: And the GI50 (COLO 205 colon)?
A: The GI50 was 51.8 nM.

Q: And the TGI (COLO 205 colon)?
A: The TGI was 232 nM.

Q: What about the GI50 (DU-145 prostate) of the same compound?
A: Its GI50 is 300 nM.

Q: And the TGI (DU-145 prostate)?
A: The TGI was 1630 nM.

Q: What about the GI50 (EKVX NSCLC) of the same compound?
A: Its GI50 is 48.7 nM.

Q: And the TGI (EKVX NSCLC)?
A: The TGI was 263 nM.

Q: And the GI50 (HCT-116 colon)?
A: The GI50 was 308 nM.

Q: What about the TGI (HCT-116 colon) of the same compound?
A: Its TGI is 1630 nM.

Q: What about the GI50 (HL-60(TB) leukemia) of the same compound?
A: Its GI50 is 36.1 nM.

Q: And the TGI (HL-60(TB) leukemia)?
A: Its TGI is 187 nM.

Q: What about the GI50 (HOP-62 NSCLC) of the same compound?
A: The GI50 was 356 nM.

Q: What about the TGI (HOP-62 NSCLC) of the same compound?
A: The TGI was 1350 nM.

Q: And the GI50 (HOP-92 NSCLC)?
A: The GI50 was 318 nM.

Q: What about the TGI (HOP-92 NSCLC) of the same compound?
A: Its TGI is 1310 nM.

Q: What about the GI50 (HT29 colon) of the same compound?
A: The GI50 was 48.6 nM.

Q: And the TGI (HT29 colon)?
A: The TGI was 294 nM.

Q: And the GI50 (IGROV1 ovarian)?
A: Its GI50 is 283 nM.

Q: And the TGI (IGROV1 ovarian)?
A: Its TGI is 1160 nM.

Q: What about the GI50 (K-562 leukemia) of the same compound?
A: Its GI50 is 404 nM.

Q: And the TGI (K-562 leukemia)?
A: The TGI was 1680 nM.

Q: What about the GI50 (KM12 colon) of the same compound?
A: Its GI50 is 319 nM.

Q: What about the TGI (KM12 colon) of the same compound?
A: The TGI was 1290 nM.

Q: What about the GI50 (M14 melanoma) of the same compound?
A: Its GI50 is 491 nM.

Q: And the TGI (M14 melanoma)?
A: The TGI was 1860 nM.

Q: What about the GI50 (MALME-3M melanoma) of the same compound?
A: The GI50 was 494 nM.

Q: And the TGI (MALME-3M melanoma)?
A: Its TGI is 1840 nM.

Q: What about the GI50 (MDA-MB-231 breast) of the same compound?
A: The GI50 was 556 nM.

Q: And the TGI (MDA-MB-231 breast)?
A: The TGI was 1890 nM.

Q: What about the GI50 (MDA-MB-435 melanoma) of the same compound?
A: The GI50 was 447 nM.

Q: And the TGI (MDA-MB-435 melanoma)?
A: The TGI was 1960 nM.

Q: And the GI50 (MDA-MB-468 breast)?
A: Its GI50 is 133 nM.

Q: And the TGI (MDA-MB-468 breast)?
A: The TGI was 315 nM.

Q: And the GI50 (MOLT-4 leukemia)?
A: Its GI50 is 202 nM.

Q: What about the TGI (MOLT-4 leukemia) of the same compound?
A: The TGI was 687 nM.

Q: And the GI50 (NCI-H226 lung)?
A: Its GI50 is 118 nM.

Q: What about the TGI (NCI-H226 lung) of the same compound?
A: Its TGI is 648 nM.

Q: What about the GI50 (NCI-H23 lung) of the same compound?
A: Its GI50 is 228 nM.

Q: And the TGI (NCI-H23 lung)?
A: Its TGI is 1390 nM.

Q: And the GI50 (NCI-H460 NSCLC)?
A: Its GI50 is 131 nM.

Q: And the TGI (NCI-H460 NSCLC)?
A: The TGI was 1070 nM.

Q: And the GI50 (NCI-H522 lung)?
A: Its GI50 is 367 nM.

Q: What about the TGI (NCI-H522 lung) of the same compound?
A: Its TGI is 1490 nM.

Q: And the GI50 (OVCAR-3 ovarian)?
A: The GI50 was 517 nM.

Q: What about the TGI (OVCAR-3 ovarian) of the same compound?
A: Its TGI is 1780 nM.

Q: What about the GI50 (OVCAR-4 ovarian) of the same compound?
A: The GI50 was 417 nM.

Q: What about the TGI (OVCAR-4 ovarian) of the same compound?
A: Its TGI is 12200 nM.

Q: What about the GI50 (PC-3 prostate) of the same compound?
A: Its GI50 is 1030 nM.

Q: And the TGI (PC-3 prostate)?
A: The TGI was 2220 nM.

Q: What about the GI50 (RXF 393 renal) of the same compound?
A: The GI50 was 294 nM.

Q: And the TGI (RXF 393 renal)?
A: The TGI was 952 nM.

Q: What about the GI50 (SF-268 CNS) of the same compound?
A: The GI50 was 397 nM.

Q: What about the TGI (SF-268 CNS) of the same compound?
A: Its TGI is 1510 nM.

Q: And the GI50 (SF-539 CNS)?
A: The GI50 was 246 nM.

Q: What about the TGI (SF-539 CNS) of the same compound?
A: The TGI was 673 nM.

Q: What about the GI50 (SK-MEL-2 melanoma) of the same compound?
A: Its GI50 is 383 nM.

Q: And the TGI (SK-MEL-2 melanoma)?
A: Its TGI is 1830 nM.

Q: What about the GI50 (SK-MEL-28 melanoma) of the same compound?
A: Its GI50 is 17800 nM.

Q: What about the TGI (SK-MEL-28 melanoma) of the same compound?
A: Its TGI is 32300 nM.

Q: And the GI50 (SK-OV-3 ovarian)?
A: The GI50 was 1110 nM.

Q: And the TGI (SK-OV-3 ovarian)?
A: The TGI was 2320 nM.

Q: And the GI50 (SN12C renal)?
A: The GI50 was 385 nM.

Q: And the TGI (SN12C renal)?
A: The TGI was 1400 nM.

Q: What about the GI50 (SNB-19 CNS) of the same compound?
A: Its GI50 is 1220 nM.

Q: What about the TGI (SNB-19 CNS) of the same compound?
A: Its TGI is 2520 nM.

Q: What about the GI50 (SW-620 colon) of the same compound?
A: Its GI50 is 218 nM.

Q: What about the TGI (SW-620 colon) of the same compound?
A: Its TGI is 1180 nM.

Q: And the GI50 (TK-10 renal)?
A: The GI50 was 379 nM.

Q: And the TGI (TK-10 renal)?
A: The TGI was 1510 nM.

Q: And the GI50 (UACC-257 melanoma)?
A: Its GI50 is 571 nM.

Q: And the TGI (UACC-257 melanoma)?
A: The TGI was 1950 nM.

Q: What about the GI50 (UACC-62 melanoma) of the same compound?
A: Its GI50 is 388 nM.

Q: What about the TGI (UACC-62 melanoma) of the same compound?
A: Its TGI is 1690 nM.

Q: What about the GI50 (UO-31 renal) of the same compound?
A: Its GI50 is 929 nM.

Q: What about the TGI (UO-31 renal) of the same compound?
A: The TGI was 2140 nM.
